In patent US9637483B2, “Heterocyclic compound” (TAKEDA PHARMACEUTICAL COMPANY LIMITED, priority 2013, dated 2017):

Experiments:
Assay type in all cases: biochemical
JAK1 = target: T1, JAK1 (Homo sapiens, UniProt P23458); experiment: JAK1 enzyme inhibition test (LANCE method); settings: 1 μM test compound; for inhibition at 1 µM: read-out: JAK1 enzyme inhibitory activity (%, 1 μM)
T1 construct: purchased Invitrogen
In short: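 TR-FRET (LANCE) with ULight-JAK1 peptide (300 nM working solution) and ATP (150 μM working solution) in HEPES pH 7.5, MgCl2, EGTA, DTT buffer; 1 h at room temperature. EDTA stop plus Eu-anti-phosphotyrosine antibody, 665 nm read after 1 h. Inhibition relative to enzyme-free wells as 100%.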

JAK2 = target: T2, JAK2 (Homo sapiens, UniProt O60674); experiment: JAK2 enzyme inhibition test (LANCE method); settings: 1 μM test compound; for inhibition at 1 µM: read-out: JAK2 enzyme inhibitory activity (%, 1 μM)
T2 construct: purchased Invitrogen
In short: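 Recombinant JAK2 (6 ng/mL solution) phosphorylated ULight-JAK1 peptide (300 nM solution) with ATP (45 μM solution) in pH 7.5 HEPES/MgCl2/DTT buffer for 1 hr at room temperature. After EDTA stop and europium anti-phosphotyrosine antibody for 1 hr, TR-FRET read at 665 nm; inhibition relative to enzyme-free wells as 100%.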

JAK3 = target: T3, JAK3 (Homo sapiens, UniProt P52333); experiment: JAK3 enzyme inhibition test (LANCE method); settings: 1 μM test compound; for inhibition at 1 µM: read-out: JAK3 enzyme inhibitory activity (%, 1 μM)
T3 construct: purchased Invitrogen
T3 sequence (P52333 1-1124): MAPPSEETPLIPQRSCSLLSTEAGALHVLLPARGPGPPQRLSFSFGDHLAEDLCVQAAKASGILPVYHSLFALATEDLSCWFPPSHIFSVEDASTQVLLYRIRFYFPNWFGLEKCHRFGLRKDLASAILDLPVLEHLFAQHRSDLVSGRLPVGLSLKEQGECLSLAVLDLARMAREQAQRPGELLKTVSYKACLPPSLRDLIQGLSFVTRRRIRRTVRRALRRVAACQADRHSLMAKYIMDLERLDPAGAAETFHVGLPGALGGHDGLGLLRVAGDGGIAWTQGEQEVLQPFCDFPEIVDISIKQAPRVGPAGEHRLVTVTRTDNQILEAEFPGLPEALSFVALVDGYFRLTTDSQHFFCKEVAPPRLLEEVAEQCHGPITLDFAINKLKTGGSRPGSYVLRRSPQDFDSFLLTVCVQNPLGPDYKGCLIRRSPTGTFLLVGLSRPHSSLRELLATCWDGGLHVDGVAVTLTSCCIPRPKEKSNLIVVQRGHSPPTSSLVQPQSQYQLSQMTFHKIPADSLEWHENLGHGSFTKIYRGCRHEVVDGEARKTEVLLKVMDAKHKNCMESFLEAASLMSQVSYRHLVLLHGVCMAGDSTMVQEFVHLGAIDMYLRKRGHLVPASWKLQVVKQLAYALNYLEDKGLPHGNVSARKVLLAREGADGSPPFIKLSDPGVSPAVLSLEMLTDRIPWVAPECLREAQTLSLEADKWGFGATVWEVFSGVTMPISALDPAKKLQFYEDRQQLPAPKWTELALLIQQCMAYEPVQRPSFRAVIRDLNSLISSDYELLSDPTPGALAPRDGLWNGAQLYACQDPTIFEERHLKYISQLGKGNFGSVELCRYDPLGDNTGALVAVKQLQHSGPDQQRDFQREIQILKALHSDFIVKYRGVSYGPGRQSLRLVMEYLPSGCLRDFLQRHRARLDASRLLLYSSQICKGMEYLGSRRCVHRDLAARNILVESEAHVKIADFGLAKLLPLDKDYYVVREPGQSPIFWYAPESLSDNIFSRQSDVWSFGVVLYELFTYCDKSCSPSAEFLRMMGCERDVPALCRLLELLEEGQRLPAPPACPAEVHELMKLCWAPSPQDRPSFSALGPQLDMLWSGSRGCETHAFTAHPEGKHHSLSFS
In short: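 Recombinant JAK3 (12 ng/mL solution) with ULight-JAK1 peptide (300 nM solution) and ATP (15 μM solution) in HEPES pH 7.5 buffer, 1 h at room temperature. EDTA stop with Eu-anti-phosphotyrosine antibody; TR-FRET at 665 nm. Inhibition relative to enzyme-free wells as 100%.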

TYK2 = target: T4, TYK2 (Homo sapiens, UniProt P29597); experiment: TYK2 enzyme inhibition test (LANCE method); settings: 1 μM test compound; for inhibition at 1 µM: read-out: TYK2 enzyme inhibitory activity (%, 1 μM)
T4 construct: purchased Invitrogen
In short: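 Recombinant TYK2 (375 ng/mL working solution) with ULight-JAK1 peptide (300 nM working solution) and ATP (30 μM working solution) in HEPES pH 7.5 buffer with MgCl2, EGTA, DTT, Tween20, BSA, reacted 1 h at RT. EDTA-stopped, Eu-anti-phosphotyrosine TR-FRET read at 665 nm; inhibition relative to enzyme-free wells as 100%.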

T2 sequence (O60674 whole entry): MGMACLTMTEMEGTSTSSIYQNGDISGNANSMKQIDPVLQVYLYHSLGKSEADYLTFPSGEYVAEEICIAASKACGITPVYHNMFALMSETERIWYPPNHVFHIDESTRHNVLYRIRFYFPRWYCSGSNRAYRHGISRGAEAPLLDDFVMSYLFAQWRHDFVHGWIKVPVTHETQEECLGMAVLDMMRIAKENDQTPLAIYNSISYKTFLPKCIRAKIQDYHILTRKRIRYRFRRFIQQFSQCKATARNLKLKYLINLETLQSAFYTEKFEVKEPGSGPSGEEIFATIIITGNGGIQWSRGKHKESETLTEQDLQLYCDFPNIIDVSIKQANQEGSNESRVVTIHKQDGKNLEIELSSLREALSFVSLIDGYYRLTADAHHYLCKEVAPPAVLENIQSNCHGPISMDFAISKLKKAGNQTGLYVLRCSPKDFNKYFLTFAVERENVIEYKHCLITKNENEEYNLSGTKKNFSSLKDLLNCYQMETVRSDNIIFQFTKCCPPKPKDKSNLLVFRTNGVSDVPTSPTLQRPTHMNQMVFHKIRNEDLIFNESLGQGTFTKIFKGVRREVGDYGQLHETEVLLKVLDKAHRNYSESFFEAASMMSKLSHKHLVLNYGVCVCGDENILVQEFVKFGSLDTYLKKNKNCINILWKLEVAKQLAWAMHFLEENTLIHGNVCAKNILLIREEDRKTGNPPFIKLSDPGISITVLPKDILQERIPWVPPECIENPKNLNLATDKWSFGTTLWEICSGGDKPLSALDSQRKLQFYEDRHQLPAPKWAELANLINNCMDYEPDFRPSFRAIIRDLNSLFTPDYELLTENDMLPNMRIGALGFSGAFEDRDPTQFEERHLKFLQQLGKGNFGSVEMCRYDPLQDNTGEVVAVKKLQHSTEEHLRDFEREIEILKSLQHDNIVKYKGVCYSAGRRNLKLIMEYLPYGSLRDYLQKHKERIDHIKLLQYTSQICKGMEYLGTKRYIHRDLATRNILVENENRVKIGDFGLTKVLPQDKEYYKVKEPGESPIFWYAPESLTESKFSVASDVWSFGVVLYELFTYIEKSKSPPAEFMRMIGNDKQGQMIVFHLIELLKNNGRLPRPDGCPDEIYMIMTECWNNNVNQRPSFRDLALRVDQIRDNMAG
T1 sequence (P23458 whole entry): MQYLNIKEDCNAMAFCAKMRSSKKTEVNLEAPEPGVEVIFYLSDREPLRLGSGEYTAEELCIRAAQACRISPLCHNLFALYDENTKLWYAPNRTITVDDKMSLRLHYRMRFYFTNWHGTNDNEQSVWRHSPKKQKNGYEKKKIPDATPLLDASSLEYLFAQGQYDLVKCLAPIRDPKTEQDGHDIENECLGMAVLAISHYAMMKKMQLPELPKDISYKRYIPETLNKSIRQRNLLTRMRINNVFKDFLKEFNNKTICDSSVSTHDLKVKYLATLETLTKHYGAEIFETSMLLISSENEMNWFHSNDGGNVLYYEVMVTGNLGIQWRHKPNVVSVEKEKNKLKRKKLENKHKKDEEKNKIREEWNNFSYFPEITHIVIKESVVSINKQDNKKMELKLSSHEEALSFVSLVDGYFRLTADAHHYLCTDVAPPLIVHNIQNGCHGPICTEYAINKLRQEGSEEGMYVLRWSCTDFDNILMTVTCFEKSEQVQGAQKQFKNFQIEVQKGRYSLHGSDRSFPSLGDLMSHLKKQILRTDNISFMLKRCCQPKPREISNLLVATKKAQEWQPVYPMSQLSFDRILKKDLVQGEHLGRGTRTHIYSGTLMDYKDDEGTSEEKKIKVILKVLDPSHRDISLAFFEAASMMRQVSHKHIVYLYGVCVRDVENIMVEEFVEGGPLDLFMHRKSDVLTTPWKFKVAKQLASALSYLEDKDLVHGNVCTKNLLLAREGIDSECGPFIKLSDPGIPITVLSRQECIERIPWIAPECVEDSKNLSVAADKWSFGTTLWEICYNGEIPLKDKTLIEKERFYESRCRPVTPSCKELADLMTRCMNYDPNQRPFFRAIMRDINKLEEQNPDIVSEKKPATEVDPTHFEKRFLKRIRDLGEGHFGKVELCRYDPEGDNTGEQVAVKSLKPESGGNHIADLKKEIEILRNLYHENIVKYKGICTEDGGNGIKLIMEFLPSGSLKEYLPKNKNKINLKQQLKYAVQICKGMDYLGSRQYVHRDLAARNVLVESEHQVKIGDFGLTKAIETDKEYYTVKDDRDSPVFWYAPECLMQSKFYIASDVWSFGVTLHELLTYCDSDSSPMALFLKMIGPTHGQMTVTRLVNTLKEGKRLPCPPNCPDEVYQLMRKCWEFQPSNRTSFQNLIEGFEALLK
T4 sequence (P29597 whole entry): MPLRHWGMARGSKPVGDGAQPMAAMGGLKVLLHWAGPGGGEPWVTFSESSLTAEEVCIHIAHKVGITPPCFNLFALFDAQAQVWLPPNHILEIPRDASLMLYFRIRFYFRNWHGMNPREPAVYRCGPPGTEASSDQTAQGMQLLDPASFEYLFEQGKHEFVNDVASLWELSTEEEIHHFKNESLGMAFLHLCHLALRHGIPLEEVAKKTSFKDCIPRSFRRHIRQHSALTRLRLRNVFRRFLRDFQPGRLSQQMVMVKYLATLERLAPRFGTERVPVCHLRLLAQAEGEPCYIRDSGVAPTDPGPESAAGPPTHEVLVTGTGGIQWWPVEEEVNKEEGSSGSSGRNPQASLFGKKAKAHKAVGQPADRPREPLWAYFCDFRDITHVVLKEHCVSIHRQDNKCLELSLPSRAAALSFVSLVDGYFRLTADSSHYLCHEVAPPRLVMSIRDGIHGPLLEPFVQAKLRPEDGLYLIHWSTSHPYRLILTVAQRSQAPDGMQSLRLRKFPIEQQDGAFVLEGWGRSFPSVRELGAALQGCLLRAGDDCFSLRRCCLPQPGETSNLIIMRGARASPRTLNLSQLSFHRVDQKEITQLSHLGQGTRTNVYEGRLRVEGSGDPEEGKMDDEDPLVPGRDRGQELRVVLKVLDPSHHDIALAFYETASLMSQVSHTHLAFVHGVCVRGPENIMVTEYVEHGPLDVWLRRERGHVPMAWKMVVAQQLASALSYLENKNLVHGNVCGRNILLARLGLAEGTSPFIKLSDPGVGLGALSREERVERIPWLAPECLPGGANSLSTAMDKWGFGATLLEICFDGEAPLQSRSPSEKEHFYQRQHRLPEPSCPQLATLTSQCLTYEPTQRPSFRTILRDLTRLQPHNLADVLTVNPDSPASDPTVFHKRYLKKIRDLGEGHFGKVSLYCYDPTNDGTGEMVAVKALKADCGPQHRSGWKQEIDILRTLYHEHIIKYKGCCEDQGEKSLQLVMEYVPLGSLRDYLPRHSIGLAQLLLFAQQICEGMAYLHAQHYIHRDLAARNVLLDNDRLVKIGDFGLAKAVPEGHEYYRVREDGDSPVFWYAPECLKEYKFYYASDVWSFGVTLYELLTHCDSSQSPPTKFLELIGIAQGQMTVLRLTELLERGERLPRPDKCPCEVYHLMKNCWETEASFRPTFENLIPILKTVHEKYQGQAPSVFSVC

| SMILES | inhibition at 1 µM (JAK2) | inhibition at 1 µM (JAK3) | inhibition at 1 µM (TYK2) | inhibition at 1 µM (JAK1) | other results |
| --- | --- | --- | --- | --- | --- |
| Cn1nc(-c2cn(C3CCCC3(C)C)c(=O)c3c(N)n[nH]c23)cc1CN1CCS(=O)(=O)CC1 (stereo not drawn) [Example 74, 3-amino-5-(2,2-dimethylcyclopentyl)-7-(5-((1,1-dioxidothiomorpholin-4-yl)methyl)-1-methyl-1H-pyrazol-3-yl)-1,5-dihydro-4H-pyrazolo[4,3-c]pyridin-4-one] | 100% | 99% | 99% |  | JAK1 enzyme inhibitory activity (%, 1 μM) (JAK1; 1 µM): 98% |
| Cn1nc(-c2cn(C3CCCC3(C)C)c(=O)c3c(N)n[nH]c23)cc1CN1CCS(=O)(=O)CC1 (stereo not drawn) [Example 75, 3-amino-5-(2,2-dimethylcyclopentyl)-7-(5-((1,1-dioxidothiomorpholin-4-yl)methyl)-1-methyl-1H-pyrazol-3-yl)-1,5-dihydro-4H-pyrazolo[4,3-c]pyridin-4-one] |  |  |  |  | JAK1 enzyme inhibitory activity (%, 1 μM) (JAK1; 1 µM): 66%; JAK2 enzyme inhibitory activity (%, 1 μM) (JAK2; 1 µM): 87%; JAK3 enzyme inhibitory activity (%, 1 μM) (JAK3; 1 µM): 93%; TYK2 enzyme inhibitory activity (%, 1 μM) (TYK2; 1 µM): 92% |
| Cn1nc(-c2cn(C3CCCC3(C)C)c(=O)c3c(N)n[nH]c23)cc1N1CCOCC1 (stereo not drawn) [Example 76, 3-amino-5-(2,2-dimethylcyclopentyl)-7-(1-methyl-5-(morpholin-4-yl)-1H-pyrazol-3-yl)-1,5-dihydro-4H-pyrazolo[4,3-c]pyridin-4-one] | 99% | 100% | 100% | 99% |  |
| Cn1nc(-c2cn(C3CCCC3(C)C)c(=O)c3c(N)n[nH]c23)cc1N1CCOCC1 (stereo not drawn) [Example 77, 3-amino-5-(2,2-dimethylcyclopentyl)-7-(1-methyl-5-(morpholin-4-yl)-1H-pyrazol-3-yl)-1,5-dihydro-4H-pyrazolo[4,3-c]pyridin-4-one] |  |  |  |  | JAK1 enzyme inhibitory activity (%, 1 μM) (JAK1; 1 µM): 79%; JAK2 enzyme inhibitory activity (%, 1 μM) (JAK2; 1 µM): 84%; JAK3 enzyme inhibitory activity (%, 1 μM) (JAK3; 1 µM): 90%; TYK2 enzyme inhibitory activity (%, 1 μM) (TYK2; 1 µM): 96% |
| Cn1nc(-c2cn(C(C3CC3)C3CC3)c(=O)c3c(N)n[nH]c23)cc1N1CCS(=O)(=O)CC1 [Example 78, 3-amino-5-(dicyclopropylmethyl)-7-(5-(1,1-dioxidothiomorpholin-4-yl)-1-methyl-1H-pyrazol-3-yl)-1,5-dihydro-4H-pyrazolo[4,3-c]pyridin-4-one] | 99% | 100% | 99% | 98% |  |
| Cn1nc(-c2cn(C(C3CC3)C3CC3)c(=O)c3c(N)n[nH]c23)cc1N1CCOCC1 [Example 79, 3-amino-5-(dicyclopropylmethyl)-7-(1-methyl-5-(morpholin-4-yl)-1H-pyrazol-3-yl)-1,5-dihydro-4H-pyrazolo[4,3-c]pyridin-4-one] | 99% | 100% | 99% | 99% |  |
| CC(C)C(C(F)F)n1cc(-c2cc(N3CCOCC3)n(C)n2)c2[nH]nc(N)c2c1=O (stereo not drawn) [Example 80, 3-amino-5-(1,1-difluoro-3-methylbutan-2-yl)-7-(1-methyl-5-(morpholin-4-yl)-1H-pyrazol-3-yl)-1,5-dihydro-4H-pyrazolo[4,3-c]pyridin-4-one] | 91% | 98% | 99% | 89% |  |
| CC(n1cc(-c2cc(N3CCOCC3)n(C)n2)c2[nH]nc(N)c2c1=O)C1(C)CC1 (stereo not drawn) [Example 81, 3-amino-5-(1-(1-methylcyclopropyl)ethyl)-7-(1-methyl-5-(morpholin-4-yl)-1H-pyrazol-3-yl)-1,5-dihydro-4H-pyrazolo[4,3-c]pyridin-4-one] | 100% | 100% | 99% | 99% |  |
| CC(C)C(n1cc(-c2cc(N3CCOCC3)n(C)n2)c2[nH]nc(N)c2c1=O)C(F)(F)F (stereo not drawn) [Example 82, 3-amino-7-(1-methyl-5-(morpholin-4-yl)-1H-pyrazol-3-yl)-5-(1,1,1-trifluoro-3-methylbutan-2-yl)-1,5-dihydro-4H-pyrazolo[4,3-c]pyridin-4-one] | 87% | 97% | 99% | 89% |  |
| Cn1nc(-c2cn(C(C3CC3)C(F)(F)F)c(=O)c3c(N)n[nH]c23)cc1N1CCOCC1 (stereo not drawn) [Example 83, 3-amino-5-(1-cyclopropyl-2,2,2-trifluoroethyl)-7-(1-methyl-5-(morpholin-4-yl)-1H-pyrazol-3-yl)-1,5-dihydro-4H-pyrazolo[4,3-c]pyridin-4-one] | 100% | 100% | 100% | 99% |  |
| CCOC(=O)C(C(C)C)n1cc(-c2cc(N3CCOCC3)n(C)n2)c2[nH]nc(N)c2c1=O (stereo not drawn) [Example 84, ethyl 2-(3-amino-7-(1-methyl-5-(morpholin-4-yl)-1H-pyrazol-3-yl)-4-oxo-1,4-dihydro-5H-pyrazolo[4,3-c]pyridin-5-yl)-3-methylbutanoate] | 87% | 97% | 83% | 84% |  |
| CC(C)C(C(N)=O)n1cc(-c2cc(N3CCOCC3)n(C)n2)c2[nH]nc(N)c2c1=O (stereo not drawn) [Example 85, 2-(3-amino-7-(1-methyl-5-(morpholin-4-yl)-1H-pyrazol-3-yl)-4-oxo-1,4-dihydro-5H-pyrazolo[4,3-c]pyridin-5-yl)-3-methylbutanamide] | 86% | 89% | 89% | 68% |  |
| CC(C)[C@H](C)n1cc(-c2cc(C(C)(C)O)n(C)n2)c2[nH]nc(N)c2c1=O.Cl [Example 86, 3-amino-7-(5-(2-hydroxypropan-2-yl)-1-methyl-1H-pyrazol-3-yl)-5-((2S)-3-methylbutan-2-yl)-1,5-dihydro-4H-pyrazolo[4,3-c]pyridin-4-one hydrochloride] |  |  |  |  | JAK1 enzyme inhibitory activity (%, 1 μM) (JAK1): 98%; JAK2 enzyme inhibitory activity (%, 1 μM) (JAK2): 98%; JAK3 enzyme inhibitory activity (%, 1 μM) (JAK3): 99%; TYK2 enzyme inhibitory activity (%, 1 μM) (TYK2): 100% |
| Cn1nc(-c2cn(C(C3CC3)C3CC3)c(=O)c3c(N)n[nH]c23)cc1N1CCS(=O)(=O)C(C)(C)C1 [Example 88, 3-amino-5-(dicyclopropylmethyl)-7-(5-(2,2-dimethyl-1,1-dioxidothiomorpholin-4-yl)-1-methyl-1H-pyrazol-3-yl)-1,5-dihydro-4H-pyrazolo[4,3-c]pyridin-4-one] | 100% | 99% | 99% | 99% |  |
| COC1(c2cc(-c3cn(C(C4CC4)C4CC4)c(=O)c4c(N)n[nH]c34)nn2C)CN(C(=O)C(C)C)C1 [Example 89, 3-amino-5-(dicyclopropylmethyl)-7-(5-(1-isobutyryl-3-methoxyazetidin-3-yl)-1-methyl-1H-pyrazol-3-yl)-1,5-dihydro-4H-pyrazolo[4,3-c]pyridin-4-one] | 99% | 99% | 100% | 97% |  |
